Source: US20140242093A1, “METHODS AND COMPOSITIONS FOR MODULATING THE INNATE IMMUNE RESPONSE AND/OR MYOGENESIS IN A MAMMALIAN SUBJECT” (FRED HUTCHINSON CANCER RESEARCH CENTER, priority 2011, published 2014)

Tested on: control human primary myoblasts
Experiment: Expression microarray of primary myoblasts transduced with lentivirus carrying DUX4-fl, DUX4-s or GFP
Protocol: Primary human myoblasts were collected and cultured as previously described (Snider et al., 2010). Primary myoblasts were maintained at or below 70% confluency for proliferation. For differentiation, cells were allowed to reach 95-100% confluency in growth medium. Once confluency was reached, the cells were changed to differentiation medium (F10 media supplemented with 1% horse serum, 10 μg/mL insulin, and 10 μg/mL transferrin, penicillin/streptomycin) and maintained for 4 days. Human RD cells were grown in DMEM in 10% bovine calf serum (Hyclone) and penicillin/streptomycin. The primary myoblasts were transduced with lentivirus carrying DUX-fl, DUX4- or GFP (MOI=15).
Expression microarrays were performed on the transduced cells at 24 hours after transduction as follows. […] Samples were analyzed by Illumina Human Whole Genome microarrays. Probe intensities were corrected, normalized, and summarized by the Lumi package of Bioconductor (Du et al., 2008). Differentially expressed genes were identified by the LIMMA package of Bioconductor (Wettenhall and Smyth, 2004). Gene set enrichment analysis (GSEA) was performed using the Bioconductor GOstats package (Falcon and Gentleman, 2007).

## DUX4-fl: full-length DUX4 protein (SEQ ID NO:110), expressed from lentiviral or pCS2 vectors or in vitro translated
Refseq NM_004000.2, cultured human skeletal muscle
  CHI3L2 expression fc: −2.705
Refseq NM_004029.2, cultured human skeletal muscle
  IRF7 expression fc: −1.959
Refseq NM_004075.2
  CRY1 expression fc: 2.342
Refseq NM_004158.2
  PSPN expression fc: 2.203
Refseq NM_004183.2
  BEST1 fc: −1.101
Refseq NM_004223.3, cultured human skeletal muscle
  UBE2L6 expression fc: −3.085
Refseq NM_004226.2
  fc of STK17B (expression array): −0.05995
Refseq NM_004252.2
  fc of SLC9A3R1 (expression array): −1.036
Refseq NM_004335.2, cultured human skeletal muscle
  BST2 expression fc: −4.248
Refseq NM_004379.2
  CREB1 fc: −1.133
Refseq NM_004502.3
  fc of HOXB7 (expression array): −1.037
Refseq NM_004510.2, cultured human skeletal muscle
  SP110 expression fc: −2.941
Refseq NM_004577.3
  PSPH fc: −1.164
Refseq NM_004628.3, cultured human skeletal muscle
  XPC expression fc: −2.458
Refseq NM_004643.1
  PABPN1 expression fc: 2.567
Refseq NM_004672.3
  MAP3K6 fc: −1.074
Refseq NM_004695.2
  fc of SLC16A5 (expression array): −1.025
Refseq NM_004719.2
  fc of SFRS2IP (expression array): −0.0565
Refseq NM_004723.2
  fc of ARHGEF2 (expression array): −1.057
Refseq NM_004740.3
  TIAF1 fc: −1.123
Refseq NM_004741.1
  NOLC1 expression fc: 2.439
Refseq NM_004787.1
  SLIT2 expression fc: 2.369
Refseq NM_004811.1
  LPXN fc: −1.124
Refseq NM_004813.1
  PEX16 fc: −1.101
Refseq NM_004816.2
  C9orf61 expression fc: 2.614
Refseq NM_004831.3
  MED26 expression fc: 2.1
Refseq NM_004832.1
  fc of GSTO1 (expression array): −1.03
Refseq NM_004862.2
  fc of LITAF (expression array): −0.5892
Refseq NM_004866.4
  fc of SCAMPI (expression array): −0.4749
Refseq NM_004886.3
  fc of APBA3 (expression array): −1.032
Refseq NM_005025.3
  SERPINI1 expression fc: 1.809
Refseq NM_005082.4, cultured human skeletal muscle
  TRIM25 expression fc: −2.513
Refseq NM_005088.2
  SFRS17A expression fc: 2.456
Refseq NM_005101.1, cultured human skeletal muscle
  ISG15 expression fc: −4.311
Refseq NM_005115.3
  MVP fc: −1.178
Refseq NM_005121.2
  MED13 expression fc: 1.817
Refseq NM_005132.2
  fc of REC8 (expression array): −1.007
Refseq NM_005177.3
  ATP6V0A1 fc: −1.152
Refseq NM_005194.2, cultured human skeletal muscle
  CEBPB expression fc: −2.441
Refseq NM_005238.2
  ETS1 fc: −1.067
Refseq NM_005245.3
  FAT1 fc: −1.138
Refseq NM_005302.2
  GPR37 expression fc: 2.121
Refseq NM_005318.2, cultured human skeletal muscle
  H1F0 expression fc: −2.434
Refseq NM_005345.4
  HSPA1A expression fc: 3.54
Refseq NM_005346.3
  HSPA1B expression fc: 3.402
Refseq NM_005382.1
  NEFM expression fc: 2.925
Refseq NM_005412.4
  SHMT2 fc: −1.089
Refseq NM_005419.2, cultured human skeletal muscle
  STAT2 expression fc: −2.69
Refseq NM_005442.2
  EOMES expression fc: 2.897
Refseq NM_005488.1
  TOM1 fc: −1.129
Refseq NM_005514.5, cultured human skeletal muscle
  HLA-B expression fc: −2.752
Refseq NM_005516.4
  HLA-E fc: −1.11
Refseq NM_005531.1, cultured human skeletal muscle
  IFI16 expression fc: −2.008
Refseq NM_005532.3, cultured human skeletal muscle
  IFI27 expression fc: −6.527
Refseq NM_005533.2, cultured human skeletal muscle
  IFI35 expression fc: −3.847
Refseq NM_005544.1
  IRS1 fc: −1.157
Refseq NM_005552.4
  KLC1 expression fc: 1.967
Refseq NM_005613.3
  RGS4 expression fc: 1.951
Refseq NM_005627.2
  SGK expression fc: 2.04
Refseq NM_005640.1
  TAF4B expression fc: 1.87
Refseq NM_005652.2
  fc of TERF2 (expression array): −1.02
Refseq NM_005669.4
  fc of REEP5 (expression array): −0.3556
Refseq NM_005734.3
  fc of HIPK3 (expression array): −0.2982
Refseq NM_005744.2
  ARIH1 expression fc: 2.243
Refseq NM_005746.2
  fc of NAMPT (expression array): −0.5767
Refseq NM_005779.1
  LHFPL2 fc: −1.13
Refseq NM_005819.4
  STX6 expression fc: 2.053
Refseq NM_005822.2
  fc of RCAN2 (expression array): −0.5968
Refseq NM_005928.1
  MFGE8 fc: −1.15
Refseq NM_005952.2, cultured human skeletal muscle
  MT1X expression fc: −2.444
Refseq NM_005985.2
  SNAI1 expression fc: 1.943
Refseq NM_006047.4
  RBM12 expression fc: 2.013
Refseq NM_006074.3, cultured human skeletal muscle
  TRIM22 expression fc: −2.581
Refseq NM_006077.2
  CBARA1 expression fc: 2.064
Refseq NM_006088.5
  TUBB2C expression fc: 1.948
Refseq NM_006148.1
  LASP1 fc: −1.152
Refseq NM_006164.2
  NFE2L2 fc: −1.093
Refseq NM_006187.2, cultured human skeletal muscle
  OAS3 expression fc: −4.029
Refseq NM_006207.1
  fc of PDGFRL (expression array): −0.6227
Refseq NM_006263.2
  PSME1 fc: −1.138
Refseq NM_006281.2
  STK3 expression fc: 2.186
Refseq NM_006288.2
  THY1 fc: −1.067
Refseq NM_006290.2, cultured human skeletal muscle
  TNFAIP3 expression fc: −2.897
Refseq NM_006308.1
  HSPB3 expression fc: 1.914
Refseq NM_006362.4
  NXF1 expression fc: 4.233
Refseq NM_006395.1
  fc of ATG7 (expression array): −1.016
Refseq NM_006424.2
  SLC34A2 expression fc: 5.514
Refseq NM_006440.3
  TXNRD2 fc: −1.104
Refseq NM_006454.2
  fc of MXD4 (expression array): −1.035
Refseq NM_006465.2
  ARID3B expression fc: 2.024
Refseq NM_006472.2, cultured human skeletal muscle
  TXNIP expression fc: −1.9
Refseq NM_006526.2
  ZNF217 expression fc: 4.114
Refseq NM_006589.2
  FAM189B fc: −1.075
Refseq NM_006602.2
  fc of TCFL5 (expression array): −1.053
Refseq NM_006605.1
  RFPL2 expression fc: 7.293
Refseq NM_006617.1
  fc of NES (expression array): −0.08904
Refseq NM_006644.2
  HSPH1 expression fc: 2.217
Refseq NM_006674.2
  HCP5 fc: −1.099
Refseq NM_006759.3
  UGP2 fc: −1.169
Refseq NM_006820.1, cultured human skeletal muscle
  IFI44L expression fc: −5.117
Refseq NM_006825.2
  fc of CKAP4 (expression array): −1.006
Refseq NM_006844.3
  fc of ILVBL (expression array): −1.015
Refseq NM_006855.2
  KDELR3 fc: −1.163
Refseq NM_006877.2
  fc of GMPR (expression array): −0.4519
Refseq NM_006931.1
  SLC2A3 expression fc: 3.385
Refseq NM_006948.4
  fc of HSPA13 (expression array): −0.1756
Refseq NM_006977.2
  ZBTB25 fc: −1.113
Refseq NM_006988.3
  ADAMTS1 fc: −1.164
Refseq NM_007021.2, cultured human skeletal muscle
  C1Oorf10 expression fc: −2.641
Refseq NM_007034.3
  fc of DNAJB4 (expression array): −1.024
Refseq NM_007044.2
  KATNA1 expression fc: 1.819
Refseq NM_007106.2
  UBL3 expression fc: 2.164
Refseq NM_007170.2
  TESK2 expression fc: 1.787
Refseq NM_007172.3
  NUP50 expression fc: 2.324
Refseq NM_007229.1
  fc of PACSIN2 (expression array): −1.038
Refseq NM_007240.1
  DUSP12 expression fc: 2.249
Refseq NM_007283.5
  fc of MGLL (expression array): −1.033
Refseq NM_007315.2, cultured human skeletal muscle
  STAT1 expression fc: −2.915
Refseq NM_009587.2
  fc of LGALS9 (expression array): −0.8549
Refseq NM_012083.2
  FRAT2 expression fc: 1.918
Refseq NM_012121.4
  fc of CDC42EP4 (expression array): −1.034
Refseq NM_012124.1
  CHORDC1 expression fc: 1.805
Refseq NM_012130.2
  CLDN14 expression fc: 3.148
Refseq NM_012143.2
  TFIP11 expression fc: 3.191
Refseq NM_012238.3
  SIRT1 expression fc: 1.844
Refseq NM_012285.1
  KCNH4 expression fc: 2.749
Refseq NM_012342.2
  BAMBI expression fc: 2.783
Refseq NM_012461.1
  fc of TINF2 (expression array): −1.025
Refseq NM_013230.2
  CD24 expression fc: 2.624
Refseq NM_013249.1
  ZNF214 expression fc: 2.219
Refseq NM_013254.2
  TBK1 fc: −1.08
Refseq NM_013262.3
  MYLIP expression fc: 1.824
Refseq NM_013293.3
  TRA2A expression fc: 1.978
Refseq NM_013302.3
  fc of EEF2K (expression array): −1.058
Refseq NM_013376.3
  SERTAD1 expression fc: 2.002
Refseq NM_013386.3
  fc of SLC25A24 (expression array): −0.2843
Refseq NM_013943.1
  fc of CLIC4 (expression array): −0.9976
Refseq NM_014038.1
  BZW2 expression fc: 2.677
Refseq NM_014045.3
  LRP10 fc: −1.102
Refseq NM_014138.3
  fc of FAM156A (expression array): −1.027
Refseq NM_014140.2
  SMARCAL1 fc: −1.157
Refseq NM_014167.2
  CCDC59 expression fc: 1.892
Refseq NM_014290.1
  fc of TDRD7 (expression array): −1.062
Refseq NM_014314.3, cultured human skeletal muscle
  DDX58 expression fc: −2.466
Refseq NM_014317.3
  PDSS1 expression fc: 2.003
Refseq NM_014324.4
  AMACR expression fc: 2.743
Refseq NM_014330.2
  PPP1R15A expression fc: 2.08
Refseq NM_014399.3
  TSPAN13 expression fc: 2.117
Refseq NM_014508.2
  APOBEC3C fc: −1.108
Refseq NM_014556.2, cultured human skeletal muscle
  EVC expression fc: −1.954
Refseq NM_014575.2, cultured human skeletal muscle
  SCHIP1 expression fc: −2.093
Refseq NM_014585.3
  SLC40A1 expression fc: 1.859
Refseq NM_014603.1
  CDR2L fc: −1.119
Refseq NM_014604.2
  TAX1BP3 fc: −1.072
Refseq NM_014633.3
  CTR9 expression fc: 2.402
Refseq NM_014655.1
  SLC25A44 expression fc: 2.017
Refseq NM_014751.4
  MTSS1 fc: −1.159
Refseq NM_014831.1
  LBA1 fc: −1.121
Refseq NM_014878.4
  KIAA0020 expression fc: 2.017
Refseq NM_014945.2
  ABLIM3 fc: −1.174
Refseq NM_014969.4
  WDR47 expression fc: 2.277
Refseq NM_015193.3
  ARC expression fc: 1.802
